Assays:
[1] = molecular target: T1, YEATS domain-containing protein 4 (Homo sapiens, UniProt O95619); test: Binding affinity to human his-tagged recombinant YEATS4 expressed in Escherichia coli assessed as inhibition constant using biotin tagged lysine 27-crotonylated histone H3 peptide as substrate preincubated for 20 mins followed by substrate addition measured after 30 mins by FRET analysis
[2] = Apparent permeability in dog RRCK cells; type: ADME, cell-based, Canis lupus familiaris, MDCKII-LE; settings: MDCK
[3] = Intrinsic clearance in human hepatocytes assessed per million cells; type: ADME, cell-based, Hepatocyte; settings: read-out: CLH
[4] = molecular target: Voltage-gated inwardly rectifying potassium channel KCNH2 (Homo sapiens, UniProt Q12809); test: Inhibition of hERG assessed as inhibition constant by patch-clamp assay; type: toxicity
[5] = Cytotoxicity against human THLE cells assessed as inhibition of cell growth by CellTiter-Glo assay; type: toxicity, cell-based
Homo sapiens [6] = species on record: Homo sapiens; test: Selectivity ratio of Ki for human recombinant YEATS1 to Ki for human recombinant YEATS4
Homo sapiens [7] = species on record: Homo sapiens; test: Selectivity ratio of Ki for human recombinant YEATS2 to Ki for human recombinant YEATS4
Homo sapiens [8] = species on record: Homo sapiens; test: Selectivity ratio of Ki for human recombinant YEATS3 to Ki for human recombinant YEATS4
[9] = Lipophilicity, logD of the compound by shake flask method; type: physicochemical; settings: octanol/water
[10] = molecular target: T1, YEATS domain-containing protein 4; test: Inhibition of N-terminal nanoLuc-tagged YEATS4 in HEK293T cells co-transfected with C-terminal halo-tagged histone 3.3 incubated for 24 hrs in presence of SAHA by NanoBRET assay; type: cell-based
[11] = Cytotoxicity against human Bone marrow cell assessed as reduction in cell viability measured after 7 days; type: toxicity, cell-based; settings: bone marrow cells
[12] = molecular target: T1, YEATS domain-containing protein 4; test: Binding affinity to C-terminal biotin-tagged YEATS4 (unknown origin) by SPR analysis
[13] = molecular target: T1, YEATS domain-containing protein 4; test: Binding affinity to YEATS4 (unknown origin) assessed as dissociation constant by isothermal calorimetric analysis
[14] = Volume of distribution at steady state in rat at 1 mg/kg, iv; type: ADME, organism-based; settings: in vivo, read-out: Vdss
[15] = Volume of distribution at steady state in mouse at 1 mg/kg, iv; type: ADME, organism-based; settings: in vivo, read-out: Vdss
[16] = Half life in rat at 3 mg/kg, po; type: ADME, organism-based; settings: in vivo
[17] = Half life in mouse at 3 mg/kg, po; type: ADME, organism-based; settings: in vivo
[18] = Half life in mouse at 100 mg/kg, po; type: ADME, organism-based; settings: in vivo
[19] = Cmax in rat at 3 mg/kg, po; type: ADME, organism-based; set-up: dose 3 mg/kg, route po; settings: in vivo
[20] = Cmax in mouse at 3 mg/kg, po; type: ADME, organism-based; set-up: dose 3 mg/kg, route po; settings: in vivo
[21] = Cmax in mouse at 100 mg/kg, po; type: ADME, organism-based; set-up: dose 100 mg/kg, route po; settings: in vivo
[22] = AUC in rat at 3 mg/kg, po; type: ADME, organism-based; set-up: dose 3 mg/kg, route po; settings: in vivo
[23] = AUC in mouse at 3 mg/kg, po; type: ADME, organism-based; set-up: dose 3 mg/kg, route po; settings: in vivo
[24] = AUC in mouse at 100 mg/kg, po; type: ADME, organism-based; set-up: dose 100 mg/kg, route po; settings: in vivo
[25] = Tmax in rat at 3 mg/kg, po; type: ADME, organism-based; settings: in vivo
[26] = Tmax in mouse at 3 mg/kg, po; type: ADME, organism-based; settings: in vivo
[27] = Tmax in mouse at 100 mg/kg, po; type: ADME, organism-based; settings: in vivo
[28] = Oral bioavailability in rat at 3 mg/kg; type: ADME, organism-based; settings: in vivo
[29] = Oral bioavailability in mouse at 3 mg/kg; type: ADME, organism-based; settings: in vivo
[30] = molecular target: T1, YEATS domain-containing protein 4; test: Binding affinity to YEATS4 (unknown origin) assessed as change in enthalpy by isothermal calorimetric analysis
[31] = molecular target: T1, YEATS domain-containing protein 4; test: Binding affinity to YEATS4 (unknown origin) assessed as change in entropy by isothermal calorimetric analysis
Protein AF-9 = molecular target: T2, Protein AF-9 (Homo sapiens, UniProt P42568); test: Inhibition of N-terminal nanoLuc-tagged YEATS3 in HEK293T cells co-transfected with C-terminal halo-tagged histone 3.3 incubated for 24 hrs in presence of SAHA by NanoBRET assay; type: cell-based
T2 sequence (P42568 whole entry): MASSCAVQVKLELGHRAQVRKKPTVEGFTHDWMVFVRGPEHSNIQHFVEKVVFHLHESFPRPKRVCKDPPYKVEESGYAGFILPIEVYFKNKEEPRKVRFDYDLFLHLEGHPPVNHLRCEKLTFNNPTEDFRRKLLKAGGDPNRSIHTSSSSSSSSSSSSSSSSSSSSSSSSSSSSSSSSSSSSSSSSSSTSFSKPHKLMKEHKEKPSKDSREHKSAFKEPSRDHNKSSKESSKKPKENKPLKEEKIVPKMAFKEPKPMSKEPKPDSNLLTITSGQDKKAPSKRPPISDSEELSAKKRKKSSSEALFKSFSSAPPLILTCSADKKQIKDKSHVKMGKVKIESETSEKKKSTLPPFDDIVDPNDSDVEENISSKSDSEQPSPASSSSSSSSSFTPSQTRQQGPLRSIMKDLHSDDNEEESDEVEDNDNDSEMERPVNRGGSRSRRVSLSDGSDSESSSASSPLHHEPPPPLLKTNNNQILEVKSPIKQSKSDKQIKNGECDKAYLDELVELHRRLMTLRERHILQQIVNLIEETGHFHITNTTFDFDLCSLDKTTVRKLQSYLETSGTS

Chain of Voltage-gated inwardly rectifying potassium channel KCNH2 (Q12809 whole entry): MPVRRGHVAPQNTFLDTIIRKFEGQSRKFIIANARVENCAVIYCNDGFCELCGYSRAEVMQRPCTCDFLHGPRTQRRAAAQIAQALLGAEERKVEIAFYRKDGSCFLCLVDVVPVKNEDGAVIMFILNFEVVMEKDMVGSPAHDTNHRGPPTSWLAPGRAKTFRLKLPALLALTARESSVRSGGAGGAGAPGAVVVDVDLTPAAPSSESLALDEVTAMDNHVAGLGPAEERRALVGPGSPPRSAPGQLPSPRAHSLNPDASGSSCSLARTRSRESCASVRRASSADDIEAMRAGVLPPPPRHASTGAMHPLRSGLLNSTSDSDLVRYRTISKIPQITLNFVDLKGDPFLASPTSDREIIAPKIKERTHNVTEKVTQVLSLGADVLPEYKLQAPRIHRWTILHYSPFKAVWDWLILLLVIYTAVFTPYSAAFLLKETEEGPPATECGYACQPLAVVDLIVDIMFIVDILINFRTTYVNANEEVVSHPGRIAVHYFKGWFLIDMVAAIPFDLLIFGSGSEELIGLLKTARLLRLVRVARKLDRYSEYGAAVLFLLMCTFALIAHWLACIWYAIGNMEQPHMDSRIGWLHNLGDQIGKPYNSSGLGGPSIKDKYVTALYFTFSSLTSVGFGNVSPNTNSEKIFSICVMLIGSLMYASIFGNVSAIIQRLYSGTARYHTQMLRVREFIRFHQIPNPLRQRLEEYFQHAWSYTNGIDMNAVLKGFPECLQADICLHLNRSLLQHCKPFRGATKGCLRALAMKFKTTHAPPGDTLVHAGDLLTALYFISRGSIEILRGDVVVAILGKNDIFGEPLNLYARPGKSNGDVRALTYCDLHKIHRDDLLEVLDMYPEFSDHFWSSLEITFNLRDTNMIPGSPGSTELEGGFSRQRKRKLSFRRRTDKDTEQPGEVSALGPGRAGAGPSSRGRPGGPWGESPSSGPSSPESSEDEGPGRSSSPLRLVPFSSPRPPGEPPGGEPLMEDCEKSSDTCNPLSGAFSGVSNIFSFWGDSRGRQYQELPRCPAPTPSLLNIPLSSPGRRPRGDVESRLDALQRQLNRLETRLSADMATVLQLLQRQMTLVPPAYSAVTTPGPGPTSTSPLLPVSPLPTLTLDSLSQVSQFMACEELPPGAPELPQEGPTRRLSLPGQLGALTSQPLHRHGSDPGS
T1 sequence (O95619 whole entry, the tested form may be a part): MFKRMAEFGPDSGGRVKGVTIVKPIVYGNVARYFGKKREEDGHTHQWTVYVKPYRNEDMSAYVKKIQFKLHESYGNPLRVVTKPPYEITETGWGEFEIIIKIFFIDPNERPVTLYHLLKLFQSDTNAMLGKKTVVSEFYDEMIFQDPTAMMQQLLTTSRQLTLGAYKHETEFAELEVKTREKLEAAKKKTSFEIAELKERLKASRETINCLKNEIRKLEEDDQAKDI

SMILES | Ki [1] | Papp [2] | hepatocyte CLint [3] | Ki [4] | IC50 [5] | Ratio Ki (Homo sapiens [6]) | Ratio Ki (Homo sapiens [7]) | Ratio Ki (Homo sapiens [8]) | logD [9] | IC50 [10] | IC50 at 7 days [11] | Kd [12] | Kd [13] | other results
CCNC(=O)c1ccc2c(c1)nc(C)n2C1CCN(CC2(O)CCCCC2)CC1 | 141 nM | 0.108 ×10⁻⁶ cm/s | 2.4 µL/min/1e6 cells | 28900 nM | > 300000 nM | 19 | 11 | 16 | 1.9 | – | – | – | – | –
CCNC(=O)c1ccc2c(C3CCN(CC4(O)CCCCC4)CC3)c(-c3cccn(C)c3=O)nn2c1 | 69 nM | 0.006 ×10⁻⁶ cm/s | < 1.8 µL/min/1e6 cells | 36100 nM | > 300000 nM | 19 | 4 | 15 | 0.09 | – | – | – | – | –
CCNC(=O)c1ccc2c(c1)nc(C)n2[C@H]1CCN(CC2(O)CCCCC2)C[C@@H]1C | 63 nM | 0.119 ×10⁻⁶ cm/s | 5.9 µL/min/1e6 cells | 22300 nM | > 300000 nM | 16 | 17 | 12 | 2.4 | 290 nM | > 100 nM | 530 nM | 80 nM | –
CCNC(=O)c1ccc2c(c1)nc(-c1cccn(C)c1=O)n2[C@H]1CCN(CC2(O)CCCCC2)C[C@@H]1C | 33 nM | 0.004 ×10⁻⁶ cm/s | < 1.8 µL/min/1e6 cells | > 100000 nM | > 300000 nM | 5 | 2 | 4 | 1.7 | – | – | – | – | –
COC1(CN2CC[C@H](c3c(C)nn4cc(C(=O)NCC5CC5)ccc34)[C@@H](C)C2)CCOCC1 | 57 nM | 0.248 ×10⁻⁶ cm/s | 16.4 µL/min/1e6 cells | 16600 nM | > 300000 nM | 213 | 49 | 160 | 2.8 | – | – | – | – | –
CCNC(=O)c1ccc2c(c1)nc(C(F)F)n2[C@H]1CCN(CC2(O)CCCCC2)C[C@@H]1C | 59 nM | 0.271 ×10⁻⁶ cm/s | 12.8 µL/min/1e6 cells | 35400 nM | > 300000 nM | 19 | 17 | 14 | 3.1 | 730 nM | > 50 nM | 297 nM | 45 nM | Vd [14]: 2.6 L/kg; Vd [15]: 7.8 L/kg; half-life [16]: 1.4 h; half-life [17]: 4.9 h; half-life [18]: 1.2 h; Cmax [19]: 487 ng/mL; Cmax [20]: 1000 ng/mL; Cmax [21]: 14000 ng/mL; AUC [22]: 1150 ng·min/mL; AUC [23]: 2150 ng·min/mL; AUC [24]: 675 ng·h/mL; Tmax [25]: 0.4 h; Tmax [26]: 0.3 h; Tmax [27]: 0.8 h; F [28]: 46%; F [29]: 68%
CCNC(=O)c1ccc2c([C@H]3CCN(CC4(O)CCOCC4)C[C@@H]3C)c(C)nn2c1 | 37 nM | 0.093 ×10⁻⁶ cm/s | < 1.8 µL/min/1e6 cells | 66600 nM | > 300000 nM | 35 | 15 | 27 | 1.6 | 300 nM | > 50 nM | – | 30 nM | deltaH [30]: 13.3 kcal/mol; deltaH [31]: -11.1 cal/mol.K
CCNC(=O)c1ccc2c([C@H]3CCN(CC4(O)CCCCC4)C[C@@H]3C)c(C)nn2c1 | 33 nM | 0.26 ×10⁻⁶ cm/s | 4.1 µL/min/1e6 cells | 4640 nM | > 300000 nM | 15 | 10 | 14 | 2.5 | 170 nM | > 50 nM | 340 nM | 52.7 nM | IC50 (Protein AF-9): 2980 nM; deltaH [30]: -15.1 kcal/mol; deltaH [31]: -17.4 cal/mol.K; half-life [18]: 1.2 h; Cmax [21]: 9140 ng/mL; AUC [24]: 412 ng·h/mL; Tmax [27]: 0.5 h
CCNC(=O)c1ccc2c(c1)[nH]c(=O)n2C1CCN(CC2(O)CCCCC2)CC1 | 284 nM | 0.021 ×10⁻⁶ cm/s | 3.2 µL/min/1e6 cells | 40200 nM | > 300000 nM | 8 | 14 | 7 | 1.7 | – | – | – | – | –
CCNC(=O)c1ccc2c(C3CCN(CC4(O)C5CC6CC(C5)CC4C6)CC3)c(C)nn2c1 (configuration not stated) | 21 nM | 0.331 ×10⁻⁶ cm/s | 33.7 µL/min/1e6 cells | 3430 nM | 123000 nM | 19 | 7 | 25 | 3.2 | – | 22 nM | 103 nM | 53 nM | IC50 ([10]; hek293t): 200 nM
CCNC(=O)c1ccc2c(C3CCN(CC4(O)CCCCC4)CC3)c(C)nn2c1 | 56 nM | 0.246 ×10⁻⁶ cm/s | 3.2 µL/min/1e6 cells | 4640 nM | > 300000 nM | 20 | 16 | 23 | 2 | – | – | – | – | –
Cc1nn2cc(C(=O)NCC3CC3)ccc2c1[C@H]1CCN(CC2(O)CCOCC2)C[C@@H]1C | 43 nM | 0.154 ×10⁻⁶ cm/s | < 1.8 µL/min/1e6 cells | 7380 nM | 269000 nM | 133 | 16 | 106 | 2 | – | – | – | – | –
